In ChEMBL document CHEMBL5724806, “Unraveling interindividual differences and functional consequences of gut microbial metabolism of immunosuppressants” (2024):

What was measured:
Assay type in all cases: ADME
[1] = The drug is tested on the gut metagenome community of A-07 with ENA study accession number: PRJEB31790 for biotransformation under microaerobic condition. The drug concentrations were measured over 7 timepoints collected between 0 and 12 hours of incubation by liquid-chromatography-coupled mass spectrometry (LC–MS); design: dose 5 uM, timepoint 0, 0.75, 1.5, 3, 6, 9, 12 hours; details: 5 µM
[2] = The drug is tested on the gut metagenome community of P-01 with ENA study accession number: PRJEB31790 for biotransformation under anaerobic condition. The drug concentrations were measured over 7 timepoints collected between 0 and 12 hours of incubation by liquid-chromatography-coupled mass spectrometry (LC–MS); design: dose 5 uM, timepoint 0, 0.75, 1.5, 3, 6, 9, 12 hours; details: 5 µM
[3] = The drug is tested on Bacteroides caccae strain: DSM19024 for biotransformation under anaerobic condition. The drug concentrations were measured over 6 timepoints collected between 0 and 12 hours of incubation by liquid-chromatography-coupled mass spectrometry (LC–MS); design: dose 5 uM, timepoint 0, 1.5, 3, 6, 9, 12 hours; details: 5 µM
[4] = The drug is tested on the gut metagenome community of A-04 with ENA study accession number: PRJEB31790 for biotransformation under anaerobic condition. The drug concentrations were measured over 7 timepoints collected between 0 and 12 hours of incubation by liquid-chromatography-coupled mass spectrometry (LC–MS); design: dose 5 uM, timepoint 0, 0.75, 1.5, 3, 6, 9, 12 hours; details: 5 µM
[5] = The drug is tested on Capnocytophaga ochracea strain: DSM7271 for biotransformation under microaerobic condition. The drug concentrations were measured over 6 timepoints collected between 0 and 12 hours of incubation by liquid-chromatography-coupled mass spectrometry (LC–MS); design: dose 5 uM, timepoint 0, 1.5, 3, 6, 9, 12 hours; details: 5 µM
[6] = The drug is tested on Dorea formicigenerans strain: DSM3992 for biotransformation under anaerobic condition. The drug concentrations were measured over 6 timepoints collected between 0 and 12 hours of incubation by liquid-chromatography-coupled mass spectrometry (LC–MS); design: dose 5 uM, timepoint 0, 1.5, 3, 6, 9, 12 hours; details: 5 µM
[7] = The drug is tested on the gut metagenome community of A-04 with ENA study accession number: PRJEB31790 for biotransformation under microaerobic condition. The drug concentrations were measured over 7 timepoints collected between 0 and 12 hours of incubation by liquid-chromatography-coupled mass spectrometry (LC–MS); design: dose 5 uM, timepoint 0, 0.75, 1.5, 3, 6, 9, 12 hours; details: 5 µM
[8] = The drug is tested on Lactobacillus fermentum strain: DSM20052 for biotransformation under anaerobic condition. The drug concentrations were measured over 6 timepoints collected between 0 and 12 hours of incubation by liquid-chromatography-coupled mass spectrometry (LC–MS); design: dose 5 uM, timepoint 0, 1.5, 3, 6, 9, 12 hours; details: limosilactobacillus fermentum, 5 µM
[9] = The drug is tested on Bacteroides thetaiotaomicron strain: DSM2079 for biotransformation under anaerobic condition. The drug concentrations were measured over 6 timepoints collected between 0 and 12 hours of incubation by liquid-chromatography-coupled mass spectrometry (LC–MS); design: dose 5 uM, timepoint 0, 1.5, 3, 6, 9, 12 hours; details: 5 µM
[10] = The drug is tested on Akkermansia muciniphila strain: DSM22959 for biotransformation under anaerobic condition. The drug concentrations were measured over 6 timepoints collected between 0 and 12 hours of incubation by liquid-chromatography-coupled mass spectrometry (LC–MS); design: dose 5 uM, timepoint 0, 1.5, 3, 6, 9, 12 hours; details: 5 µM
[11] = The drug is tested on the gut metagenome community of A-01 with ENA study accession number: PRJEB31790 for biotransformation under microaerobic condition. The drug concentrations were measured over 7 timepoints collected between 0 and 12 hours of incubation by liquid-chromatography-coupled mass spectrometry (LC–MS); design: dose 5 uM, timepoint 0, 0.75, 1.5, 3, 6, 9, 12 hours; details: 5 µM
[12] = The drug is tested on Clostridium ramosum strain: DSM1402 for biotransformation under anaerobic condition. The drug concentrations were measured over 6 timepoints collected between 0 and 12 hours of incubation by liquid-chromatography-coupled mass spectrometry (LC–MS); design: dose 5 uM, timepoint 0, 1.5, 3, 6, 9, 12 hours; details: thomasclavelia ramosa, 5 µM
[13] = The drug is tested on Gemella haemolysans strain: DSM107751 for biotransformation under microaerobic condition. The drug concentrations were measured over 6 timepoints collected between 0 and 12 hours of incubation by liquid-chromatography-coupled mass spectrometry (LC–MS); design: dose 5 uM, timepoint 0, 1.5, 3, 6, 9, 12 hours; details: 5 µM
[14] = The drug is tested on the gut metagenome community of A-10 with ENA study accession number: PRJEB31790 for biotransformation under microaerobic condition. The drug concentrations were measured over 7 timepoints collected between 0 and 12 hours of incubation by liquid-chromatography-coupled mass spectrometry (LC–MS); design: dose 5 uM, timepoint 0, 0.75, 1.5, 3, 6, 9, 12 hours; details: 5 µM
[15] = The drug is tested on Parabacteroides merdae strain: DSM19495 for biotransformation under anaerobic condition. The drug concentrations were measured over 6 timepoints collected between 0 and 12 hours of incubation by liquid-chromatography-coupled mass spectrometry (LC–MS); design: dose 5 uM, timepoint 0, 1.5, 3, 6, 9, 12 hours; details: 5 µM
[16] = The drug is tested on Gemella morbillorum strain: DSM20572 for biotransformation under anaerobic condition. The drug concentrations were measured over 6 timepoints collected between 0 and 12 hours of incubation by liquid-chromatography-coupled mass spectrometry (LC–MS); design: dose 5 uM, timepoint 0, 1.5, 3, 6, 9, 12 hours; details: 5 µM
[17] = The drug is tested on the gut metagenome community of A-09 with ENA study accession number: PRJEB31790 for biotransformation under microaerobic condition. The drug concentrations were measured over 7 timepoints collected between 0 and 12 hours of incubation by liquid-chromatography-coupled mass spectrometry (LC–MS); design: dose 5 uM, timepoint 0, 0.75, 1.5, 3, 6, 9, 12 hours; details: 5 µM
[18] = The drug is tested on the gut metagenome community of A-07 with ENA study accession number: PRJEB31790 for biotransformation under anaerobic condition. The drug concentrations were measured over 7 timepoints collected between 0 and 12 hours of incubation by liquid-chromatography-coupled mass spectrometry (LC–MS); design: dose 5 uM, timepoint 0, 0.75, 1.5, 3, 6, 9, 12 hours; details: 5 µM
[19] = The drug is tested on the gut metagenome community of A-02 with ENA study accession number: PRJEB31790 for biotransformation under anaerobic condition. The drug concentrations were measured over 7 timepoints collected between 0 and 12 hours of incubation by liquid-chromatography-coupled mass spectrometry (LC–MS); design: dose 5 uM, timepoint 0, 0.75, 1.5, 3, 6, 9, 12 hours; details: 5 µM
[20] = The drug is tested on the gut metagenome community of A-05 with ENA study accession number: PRJEB31790 for biotransformation under anaerobic condition. The drug concentrations were measured over 7 timepoints collected between 0 and 12 hours of incubation by liquid-chromatography-coupled mass spectrometry (LC–MS); design: dose 5 uM, timepoint 0, 0.75, 1.5, 3, 6, 9, 12 hours; details: 5 µM
[21] = The drug is tested on the gut metagenome community of P-04 with ENA study accession number: PRJEB31790 for biotransformation under anaerobic condition. The drug concentrations were measured over 7 timepoints collected between 0 and 12 hours of incubation by liquid-chromatography-coupled mass spectrometry (LC–MS); design: dose 5 uM, timepoint 0, 0.75, 1.5, 3, 6, 9, 12 hours; details: 5 µM
[22] = The drug is tested on Actinomyces naeslundi strain: DSM43013 for biotransformation under anaerobic condition. The drug concentrations were measured over 6 timepoints collected between 0 and 12 hours of incubation by liquid-chromatography-coupled mass spectrometry (LC–MS); design: dose 5 uM, timepoint 0, 1.5, 3, 6, 9, 12 hours; details: actinomyces naeslundii, 5 µM
[23] = The drug is tested on Prevotella copri strain: DSM18205 for biotransformation under anaerobic condition. The drug concentrations were measured over 6 timepoints collected between 0 and 12 hours of incubation by liquid-chromatography-coupled mass spectrometry (LC–MS); design: dose 5 uM, timepoint 0, 1.5, 3, 6, 9, 12 hours; details: segatella copri, 5 µM
[24] = The drug is tested on Bacteroides xylanisolvens strain: HM 722 for biotransformation under anaerobic condition. The drug concentrations were measured over 6 timepoints collected between 0 and 12 hours of incubation by liquid-chromatography-coupled mass spectrometry (LC–MS); design: dose 5 uM, timepoint 0, 1.5, 3, 6, 9, 12 hours; details: 5 µM
[25] = The drug is tested on Bacteroides stercoris strain: HM 1036 for biotransformation under anaerobic condition. The drug concentrations were measured over 6 timepoints collected between 0 and 12 hours of incubation by liquid-chromatography-coupled mass spectrometry (LC–MS); design: dose 5 uM, timepoint 0, 1.5, 3, 6, 9, 12 hours; details: 5 µM

C[C@H]1C[C@H]2[C@@H]3CCC4=CC(=O)C=C[C@]4(C)[C@@]3(F)[C@@H](O)C[C@]2(C)[C@@]1(O)C(=O)CO [BETAMETHASONE]
Bacterial Biotransformation [1]: Compound metabolized
Bacterial Biotransformation [2]: Compound NOT metabolized
Bacterial Biotransformation [3]: Compound NOT metabolized
Bacterial Biotransformation [4]: Compound metabolized
Bacterial Biotransformation [5]: Compound NOT metabolized
Bacterial Biotransformation [6]: Compound NOT metabolized
Bacterial Biotransformation [7]: Compound metabolized
Bacterial Biotransformation [8]: Compound NOT metabolized
Bacterial Biotransformation [9]: Compound NOT metabolized
Bacterial Biotransformation [10]: Compound NOT metabolized
Bacterial Biotransformation [11]: Compound NOT metabolized
Bacterial Biotransformation [12]: Compound NOT metabolized
Bacterial Biotransformation [13]: Compound NOT metabolized
Bacterial Biotransformation [14]: Compound NOT metabolized
Bacterial Biotransformation [15]: Compound NOT metabolized
Bacterial Biotransformation [16]: Compound NOT metabolized
Bacterial Biotransformation [17]: Compound metabolized
Bacterial Biotransformation [18]: Compound metabolized
Bacterial Biotransformation [19]: Compound metabolized
Bacterial Biotransformation [20]: Compound NOT metabolized
Bacterial Biotransformation [21]: Compound NOT metabolized
Bacterial Biotransformation [22]: Compound NOT metabolized
Bacterial Biotransformation [23]: Compound NOT metabolized
Bacterial Biotransformation [24]: Compound NOT metabolized
Bacterial Biotransformation [25]: Compound NOT metabolized

CCCC1O[C@@H]2C[C@H]3[C@@H]4CCC5=CC(=O)C=C[C@]5(C)[C@H]4[C@@H](O)C[C@]3(C)[C@]2(C(=O)CO)O1 (stereo not given in full) [BUDESONIDE]
Bacterial Biotransformation [1]: Compound metabolized
Bacterial Biotransformation [2]: Compound metabolized
Bacterial Biotransformation [3]: Compound NOT metabolized
Bacterial Biotransformation [4]: Compound NOT metabolized
Bacterial Biotransformation [5]: Compound NOT metabolized
Bacterial Biotransformation [6]: Compound NOT metabolized
Bacterial Biotransformation [7]: Compound metabolized
Bacterial Biotransformation [8]: Compound NOT metabolized
Bacterial Biotransformation [9]: Compound NOT metabolized
Bacterial Biotransformation [10]: Compound NOT metabolized
Bacterial Biotransformation [11]: Compound NOT metabolized
Bacterial Biotransformation [12]: Compound NOT metabolized
Bacterial Biotransformation [13]: Compound NOT metabolized
Bacterial Biotransformation [14]: Compound metabolized
Bacterial Biotransformation [15]: Compound NOT metabolized
Bacterial Biotransformation [16]: Compound NOT metabolized
Bacterial Biotransformation [17]: Compound metabolized
Bacterial Biotransformation [18]: Compound metabolized
Bacterial Biotransformation [19]: Compound NOT metabolized
Bacterial Biotransformation [20]: Compound NOT metabolized
Bacterial Biotransformation [21]: Compound NOT metabolized
Bacterial Biotransformation [22]: Compound NOT metabolized
Bacterial Biotransformation [23]: Compound NOT metabolized
Bacterial Biotransformation [24]: Compound NOT metabolized
Bacterial Biotransformation [25]: Compound NOT metabolized

C[C@]12CCC(=O)C=C1CC[C@@H]1[C@@H]2C(=O)C[C@@]2(C)[C@H]1CC[C@]2(O)C(=O)CO [CORTISONE]
Bacterial Biotransformation [1]: Compound metabolized
Bacterial Biotransformation [2]: Compound metabolized
Bacterial Biotransformation [3]: Compound NOT metabolized
Bacterial Biotransformation [4]: Compound metabolized
Bacterial Biotransformation [5]: Compound NOT metabolized
Bacterial Biotransformation [6]: Compound NOT metabolized
Bacterial Biotransformation [7]: Compound metabolized
Bacterial Biotransformation [8]: Compound NOT metabolized
Bacterial Biotransformation [9]: Compound NOT metabolized
Bacterial Biotransformation [10]: Compound NOT metabolized
Bacterial Biotransformation [11]: Compound metabolized
Bacterial Biotransformation [12]: Compound NOT metabolized
Bacterial Biotransformation [13]: Compound NOT metabolized
Bacterial Biotransformation [14]: Compound metabolized
Bacterial Biotransformation [15]: Compound NOT metabolized
Bacterial Biotransformation [16]: Compound NOT metabolized
Bacterial Biotransformation [17]: Compound metabolized
Bacterial Biotransformation [18]: Compound metabolized
Bacterial Biotransformation [19]: Compound metabolized
Bacterial Biotransformation [20]: Compound metabolized
Bacterial Biotransformation [21]: Compound metabolized
Bacterial Biotransformation [22]: Compound NOT metabolized
Bacterial Biotransformation [23]: Compound NOT metabolized
Bacterial Biotransformation [24]: Compound NOT metabolized
Bacterial Biotransformation [25]: Compound NOT metabolized
